Results as given in patent US9617244B2, “Antibacterial quinoline derivatives” (JANSSEN PHARMACEUTICA NV, priority 2012, dated 2017).
In brackets after ≈: the same amount, converted by molar mass.

Columns and labels:
[1] = test system: Staphylococcus aureus (ATCC29213); assay: In-vitro anti-bacterial activity, microtitre plate assay, IC90 determination (non-mycobacterial strains); format: cell-based; conditions: 90% inhibitory concentration for bacterial growth, resazurin fluorescence; for IC90 STA B29213: 24 hours; for IC90: Staphylococcus aureus, ATCC29213, 24 h, read-out: IC90 STA B29213
In short: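 Growth inhibition measured fluorometrically with resazurin (530/590 nm) after overnight 37 °C incubation under normal atmosphere. Bacteria added at roughly 100 TCID50 per well in Mueller-Hinton broth to five-fold compound dilution series; IC90 reported in μg/ml.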

[2] = test system: Mycobacterium smegmatis (ATCC607); assay: In-vitro anti-bacterial activity against strain M. Smegmatis ATCC607; format: cell-based; conditions: 90% inhibitory concentration for bacterial growth, Alamar Blue fluorescence; for IC90 MSM 607: 48 hours; for IC90: Mycolicibacterium smegmatis, ATCC607, 48 h, read-out: IC90 MSM 607
In short: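 IC90 (μg/ml) derived from Alamar Blue fluorescence (530/590 nm) after 48 h growth at 37 °C under 5% CO2. About 250 CFU per well in Mueller-Hinton broth faced five-fold serial compound dilutions in BSA-containing wells.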

IC90 STA B29213 [1] [µg/mL]	IC90 MSM 607 [2] [µg/mL]	melting point [°C]	IC90 [1] [µg/mL]	IC90 [2] [µg/mL]	Structure (SMILES)
3.60 (≈ 6.32 µM)	1.43 (≈ 2.51 µM)	190			COc1nc2ccc(Br)cc2cc1C(c1ccc(Cl)cc1)C1(O)CCNC(Cc2ccc(F)cc2)C1 (stereo not drawn) [Compound 355]
7.74 (≈ 17.8 µM)	5.48 (≈ 12.6 µM)	118			COc1nc2ccc(Cl)cc2cc1C(c1ccc(Cl)cc1)C1(O)CCNCC1F (stereo not drawn) [Compound 455]
6.14 (≈ 12.6 µM)	3.08 (≈ 6.31 µM)	194			C=CC1CC(O)(C(c2ccc(Cl)cc2)c2cc3cc(Br)ccc3nc2OC)CCN1 (stereo not drawn) [Compound 372]
3.70 (≈ 6.3 µM)	1.86 (≈ 3.17 µM)	197			COc1nc2ccc(S(C)(=O)=O)cc2cc1C(c1ccc(Cl)cc1)C1(O)CCNC(c2ccc3ccccc3c2)C1 (stereo not drawn) [Compound 460]
>14.27	>14.27	182			COc1nc2ccc(S(C)(=O)=O)cc2cc1C(c1ccc(Cl)cc1)C1(O)CCNCC1Cc1cccc[n+]1[O-] (stereo not drawn) [Compound 448]
5.48 (≈ 12.6 µM)	2.75 (≈ 6.32 µM)	190			COc1nc2ccc(Cl)cc2cc1C(c1ccc(Cl)cc1)C1(O)CCNCC1F (stereo not drawn) [Compound 449]
7.16 (≈ 12.6 µM)	3.59 (≈ 6.31 µM)	146			COc1nc2ccc(Cl)cc2cc1C(c1ccc(S(C)(=O)=O)cc1)C1(O)CCNC(c2ccc(F)cc2C)C1 (stereo not drawn) [Compound 366]
5.43 (≈ 12.6 µM)	3.43 (≈ 7.95 µM)	174			COc1nc2ccc(Cl)cc2cc1C(c1ccc(Cl)cc1)C1(O)CCNCC1C (stereo not drawn) [Compound 423]
3.65 (≈ 6.3 µM)	2.90 (≈ 5.01 µM)	125			COc1nc2ccc(S(=O)(=O)C(C)C)cc2cc1C(c1ccc(Cl)cc1)C1(O)CCNC(Cc2ccccc2)C1 (stereo not drawn) [Compound 386]
14.75 (≈ 25.1 µM)	2.34 (≈ 3.99 µM)	160			COc1nc2ccc(S(C)(=O)=O)cc2cc1C(c1ccc(Cl)cc1)C1(O)CCNC(c2ccc3ccccc3c2)C1 (stereo not drawn) [Compound 463]
		180	> 12.3	> 12.3	COc1nc2ccc(S(C)(=O)=O)cc2cc1C(c1ccc(Cl)cc1)C1(O)CCNCC1(C)C (stereo not drawn) [Compound 397]
14.30 (≈ 25.1 µM)	11.36 (≈ 20 µM)	170			COc1nc2ccc(S(C)(=O)=O)cc2cc1C(c1ccc(Cl)cc1)C1(O)CCNC(Cc2ccc(F)cc2)C1 (stereo not drawn) [Compound 390]
3.60 (≈ 6.32 µM)	1.43 (≈ 2.51 µM)	138			COc1nc2ccc(Br)cc2cc1C(c1ccc(Cl)cc1)C1(O)CCNC(Cc2ccc(F)cc2)C1 (stereo not drawn) [Compound 358]
10.94 (≈ 25.1 µM)	4.35 (≈ 9.99 µM)	186			COc1nc2ccc(Cl)cc2cc1C(c1ccc(Cl)cc1)C1(O)CCNCC1F (stereo not drawn) [Compound 454]

More lines, now with the values behind:

Structure (SMILES)	IC90 STA B29213 [1] [µg/mL]	IC90 MSM 607 [2] [µg/mL]	melting point [°C]	IC90 [1] [µg/mL]	IC90 [2] [µg/mL]
CCn1c(=O)c(C(c2ccc(Cl)cc2)C2(O)CCNC(Cc3ccccc3)C2)cc2cc(Br)ccc21 (stereo not drawn) [Compound 82]	2.84 (≈ 5.02 µM)	1.60 (≈ 2.83 µM)	230		
CSc1ccc2[nH]c(=O)c(C(c3cccc(Cl)c3)C3(O)CCNC(c4ccc(F)cc4C)C3)cc2c1 (stereo not drawn) [Compound 174]	3.30 (≈ 6.31 µM)	3.30 (≈ 6.31 µM)	171		
COc1nc2ccc(Cl)cc2cc1C(c1ccc(Cl)cc1)C1(O)CCN(C(C)c2ccccc2)C(CO)C1 (stereo not drawn) [Compound 9]			182	4.92 (≈ 8.92 µM)	3.48 (≈ 6.31 µM)
COc1nc2ccc(SC)cc2cc1C(c1ccccc1)C1(O)CCNC(c2ccc(F)cc2C)C1 (stereo not drawn) [Compound 198]	3.17 (≈ 6.31 µM)	3.17 (≈ 6.31 µM)	187		
COc1nc2ccc(-c3cccnc3)cc2cc1C(c1cccc(Cl)c1)C1(O)CCNC(Cc2ccccc2)C1 (stereo not drawn) [Compound 36]			120	3.47 (≈ 6.31 µM)	2.19 (≈ 3.98 µM)
COc1nc2ccc(Br)cc2cc1C(c1ccc(Cl)cc1)C1(O)CCNC(Cc2ccc(F)cc2)C1 (stereo not drawn) [Compound 339]	3.60 (≈ 6.32 µM)	1.80 (≈ 3.16 µM)	176		
COc1nc2ccc(Br)cc2cc1C(c1ccccc1)C1(O)CCNC(c2ccc(F)cc2C)C1 (stereo not drawn) [Compound 193]	5.35 (≈ 9.99 µM)	5.35 (≈ 9.99 µM)	147		
COc1nc2ccc(S(C)(=O)=O)cc2cc1C(c1ccccc1)C1(O)CCNC(c2ccc(F)cc2C)C1 (stereo not drawn) [Compound 184]			172	13.4 (≈ 25.1 µM)	13.4 (≈ 25.1 µM)
CS(=O)(=O)c1ccc2[nH]c(=O)c(C(c3ccc(Cl)cc3)C3(O)CCNC(Cc4ccc(F)cc4)C3)cc2c1 (stereo not drawn) [Compound 56]	>13.94	>13.94	140		
COc1nc2ccc(Br)cc2cc1C(c1ccc(Cl)cc1)C1(O)CCNC(Cc2ccc(F)cc2)C1 (stereo not drawn) [Compound 337]	1.80 (≈ 3.16 µM)	0.90 (≈ 1.58 µM)	186		
COc1nc2ccc(Br)cc2cc1C(c1ccc(Cl)cc1)C1(O)CCNC(Cc2ccccc2)C1 (stereo not drawn) [Compound 33]	3.48 (≈ 6.31 µM)	>3.48	177		
CS(=O)(=O)c1ccc2[nH]c(=O)c(C(c3ccccc3)C3(O)CCNC(Cc4ccccc4)C3)cc2c1 (stereo not drawn) [Compound 153]			183	> 12.6	> 12.6
CCCN(C)CC1CC(O)(C(c2ccc(Cl)cc2)c2cc3cc(Cl)ccc3nc2OC)CCN1 (stereo not drawn) [Compound 63]	3.17 (≈ 6.31 µM)	1.59 (≈ 3.16 µM)	157		
COc1nc2ccc(S(C)(=O)=O)cc2cc1C(c1cccc(Cl)c1)C1(O)CCNC(c2ccc(F)cc2C)C1 (stereo not drawn) [Compound 44]	7.16 (≈ 12.6 µM)	3.59 (≈ 6.31 µM)	148		
COc1nc2ccc(Br)cc2cc1C(c1ccc(Cl)cc1)C1(O)CCNC(Cc2ccccn2)C1 (stereo not drawn) [Compound 60]		1.39 (≈ 2.51 µM)	161	2.77 (≈ 5.01 µM)	
COc1nc2ccc(SC)cc2cc1C(c1ccccc1)C1(O)CCNC(c2ccc(F)cc2C)C1 (stereo not drawn) [Compound 195]	3.17 (≈ 6.31 µM)	2.00 (≈ 3.98 µM)	153		
COc1nc2ccc(SC)cc2cc1C(c1ccc(Cl)cc1)C1(O)CCNC(c2ccc(F)cc2C)C1 (stereo not drawn) [Compound 273]	3.39 (≈ 6.31 µM)	1.70 (≈ 3.17 µM)	204		
CCn1c(=O)c(C(c2ccc(Cl)cc2)C2(O)CCNC(Cc3ccccc3)C2)cc2cc(Br)ccc21 (stereo not drawn) [Compound 83]	7.12 (≈ 12.6 µM)	3.57 (≈ 6.31 µM)	219		
COc1nc2ccc(Br)cc2cc1C(c1ccc(Cl)cc1)C1(O)CCNC(c2ccc(F)cc2C)C1 (stereo not drawn) [Compound 105]	1.80 (≈ 3.16 µM)	0.90 (≈ 1.58 µM)	149		
CS(=O)(=O)c1ccc2[nH]c(=O)c(C(c3ccccc3)C3(O)CCNC(Cc4ccccc4)C3)cc2c1 (stereo not drawn) [Compound 156]	>12.63	11.25 (≈ 22.4 µM)	254		
COc1nc2ccc(SC)cc2cc1C(c1ccc(Cl)cc1)C1(O)CCNC(c2ccc(F)cc2C)C1 (stereo not drawn) [Compound 275]	0.85 (≈ 1.58 µM)	1.35 (≈ 2.51 µM)	140		
CN1CCC(O)(C(c2ccc(Cl)cc2)c2cc3cc(Br)ccc3[nH]c2=O)CC1Cc1ccccc1 (stereo not drawn) [Compound 84]			238	6.95 (≈ 12.6 µM)	5.52 (≈ 10 µM)
COc1nc2ccc(S(C)(=O)=O)cc2cc1C(c1ccc(Cl)cc1)C1(O)CCNC(c2ccc(F)cc2C)C1 (stereo not drawn) [Compound 219]	3.59 (≈ 6.31 µM)	1.80 (≈ 3.16 µM)	156		
COc1nc2ccc(Br)cc2cc1C(c1ccc(Cl)cc1)C1(O)CCNC(C)C1 (stereo not drawn) [Compound 124]			164	3 (≈ 6.3 µM)	3 (≈ 6.3 µM)
COc1nc2ccc(Cl)cc2cc1C(c1ccc(SC)cc1)C1(O)CCNC(c2ccc(F)cc2C)C1 (stereo not drawn) [Compound 351]	1.70 (≈ 3.17 µM)	1.35 (≈ 2.51 µM)	128 to 130		
COc1nc2ccc(Br)cc2cc1C(c1ccccc1)C1(O)CCNC(c2ccc(F)cc2C)C1 (stereo not drawn) [Compound 250]	1.69 (≈ 3.16 µM)	1.35 (≈ 2.52 µM)	125		
COc1nc2ccc(SC)cc2cc1C(c1ccc(Cl)cc1)C1(O)CCNC(Cc2ccc(F)cc2)C1 (stereo not drawn) [Compound 302]	2.14 (≈ 3.98 µM)	1.35 (≈ 2.51 µM)	120		
COc1nc2ccc(SC)cc2cc1C(c1ccc(Cl)cc1)C1(O)CCNC(c2ccc(F)cc2C)C1 (stereo not drawn) [Compound 244]	2.40 (≈ 4.47 µM)	1.51 (≈ 2.81 µM)	205		
COc1nc2ccc(S(C)(=O)=O)cc2cc1C(c1ccccc1)C1(O)CCNC(c2ccc(F)cc2C)C1 (stereo not drawn) [Compound 185]	13.43 (≈ 25.1 µM)	8.47 (≈ 15.8 µM)	162		
